This is an account of results in US20150087673A1, “METHODS FOR USING AND BIOMARKERS FOR AMPK-ACTIVATING COMPOUNDS” (RIGEL PHARMACEUTICALS, INC., priority 2013, published 2015).

The assay concerns AMPK. The assay can be described thus: AMPK activation assay (enzyme-linked immunosorbent assay). Format: cell-based. In short, it runs like this:
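Activator screen performed per well-known kit methods.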
`O=C(Nc1ccc(OCc2ccccc2)cc1)c1ccc(C(=O)N2CCN(Cc3ccc(F)cc3)CC2)cn1` [Compound 27, N-(4-benzyloxyphenyl)-5-(4-(4-fluorobenzyl)piperazine-1-carbonyl)picolinamide] displayed an EC50 of 0.5 to 1 µM. The result for `COc1ccc(CN2CCC(NC(=O)c3ccc(C(=O)N4CCC(C(=O)c5ccc(F)cc5)CC4)cn3)CC2)cc1` [Compound 160, 5-(4-(4-fluorobenzoyl)piperidine-1-carbonyl)-N-(1-(4-methoxybenzyl)piperidin-4-yl)picolinamide] reads less than 0.5 µM. The result for `CC(C)N1CCN(C(=O)c2ccc(C(=O)NC3CCN(Cc4ccc(C#N)cc4)CC3)nc2)CC1` [Compound 84, N-(1-(4-cyanobenzyl)piperidin-4-yl)-5-(4-isopropylpiperazine-1-carbonyl)picolinamide] reads 1 to 5 µM; that for `CC(=O)Nc1ccc(OC2CCN(C(=O)c3ccc(C(=O)Nc4ccc(Oc5ccc(F)cc5)nc4)nc3)CC2)cc1` [Compound 408, 5-(4-(4-acetamidophenoxy)piperidine-1-carbonyl)-N-(6-(4-fluorophenoxy)pyridin-3-yl)picolinamide], less than 0.5 µM; that for `CS(=O)(=O)c1ccc(OC2CCN(C(=O)c3ccc(C(=O)NC4CCN(Cc5ccc(N6CCCC6)cc5)CC4)cn3)CC2)cc1` [Compound 230, 6-(4-(4-(methylsulfonyl)phenoxy)piperidine-1-carbonyl)-N-(1-(4-(pyrrolidin-1-yl)benzyl)piperidin-4-yl)nicotinamide], 0.5 to 1 µM. `COc1ccc(C(=O)C2CCN(C(=O)c3ncc(C(=O)NC4CCN(Cc5ccc(C#N)cc5)CC4)cc3CCCNC(=O)OC(C)(C)C)CC2)cc1` [Compound 416, tert-butyl 3-(5-(1-(4-cyanobenzyl)piperidin-4-ylcarbamoyl)-2-(4-(4-methoxybenzoyl)piperidine-1-carbonyl)pyridin-3-yl)propylcarbamate]: the EC50 lay in the range of 1 to 5 µM.

Turning to `COc1ccc(C(=O)C2CCN(C(=O)c3ccc(C(=O)Nc4ccc(Oc5ccc(F)cc5)nc4)cn3)CC2)cc1` [Compound 325, N-(6-(4-fluorophenoxy)pyridin-3-yl)-6-(4-(4-methoxybenzoyl)piperidine-1-carbonyl)nicotinamide], the concentration for a half-maximal effect (EC50) is less than 0.5 µM. The figure for `COc1ccc(C(=O)C2CCN(C(=O)c3ccc(C(=O)N(C)C4CCN(Cc5ccc(C#N)cc5)CC4)cn3)CC2)cc1` [Compound 482, N-(1-(4-cyanobenzyl)piperidin-4-yl)-6-(4-(4-methoxybenzoyl)piperidine-1-carbonyl)-N-methylnicotinamide] is less than 0.5 µM; for `N#Cc1ccc(O[C@H]2CC[C@@H](NC(=O)c3ccc(C(=O)N4CCC(Oc5ccc(C(F)(F)F)cc5)CC4)cn3)CC2)cc1F` [Compound 199, N-((cis)-4-(4-cyano-3-fluorophenoxy)cyclohexyl)-5-(4-(4-(trifluoromethyl)phenoxy)piperidine-1-carbonyl)picolinamide] it is less than 0.5 µM; for `CC(=O)c1ccc(Oc2ccc(NC(=O)c3ccc(C(=O)N4CCN(c5ccc(S(=O)(=O)C(C)C)cc5)CC4)nc3)cn2)cc1` [Compound 489, N-(6-(4-acetylphenoxy)pyridin-3-yl)-6-(4-(4-(isopropylsulfonyl)phenyl)piperazine-1-carbonyl)nicotinamide] it is less than 0.5 µM. The compound `COc1cccc(CC2CCN(C(=O)c3ccc(C(=O)NC4CCN(Cc5ccc(C#N)cc5)CC4)nc3)CC2)c1` [Compound 147, N-(1-(4-cyanobenzyl)piperidin-4-yl)-5-(4-(3-methoxybenzyl)piperidine-1-carbonyl)picolinamide] displayed an EC50 of less than 0.5 µM. The figure for `Cc1ccc(CC2CCN(C(=O)c3ccc(C(=O)NC4CCN(Cc5ccc(C#N)cc5)CC4)nc3)CC2)cc1` [Compound 145, N-(1-(4-cyanobenzyl)piperidin-4-yl)-5-(4-(4-methylbenzyl)piperidine-1-carbonyl)picolinamide] is less than 0.5 µM. The result for `O=C(NCc1ccccc1)c1ccc(C(=O)N2CCN(Cc3ccccc3)CC2)cn1` [Compound 116, N-benzyl-5-(4-benzylpiperazine-1-carbonyl)picolinamide] reads 1 to 5 µM. `CS(=O)(=O)c1ccc(OC2CCN(C(=O)c3ccc(C(=O)NC4CCN(Cc5ccc(N6CCCC6)cc5)CC4)nc3)CC2)cc1` [Compound 208, 5-(4-(4-(methylsulfonyl)phenoxy)piperidine-1-carbonyl)-N-(1-(4-(pyrrolidin-1-yl)benzyl)piperidin-4-yl)picolinamide]: the EC50 is less than 0.5 µM. The compound `N#Cc1ccc(CN2CCC(NC(=O)c3ccc(C(=O)N4CCN(c5ccc(F)cc5)CC4)cn3)CC2)cc1` [Compound 341, N-(1-(4-cyanobenzyl)piperidin-4-yl)-5-(4-(4-fluorophenyl)piperazine-1-carbonyl)picolinamide] came in with an EC50 of less than 0.5 µM. Compound `N#Cc1ccc(Oc2ccc(NC(=O)c3ccc(C(=O)N4CCC(S(=O)(=O)c5ccc(F)cc5)CC4)nc3)cn2)cc1` [Compound 472, N-(6-(4-cyanophenoxy)pyridin-3-yl)-6-(4-(4-fluorophenylsulfonyl)piperidine-1-carbonyl)nicotinamide] showed an EC50 of 1 to 5 µM.

Compound `CC(=O)Nc1cccc(OC2CCN(C(=O)c3ccc(C(=O)NC4CCN(Cc5cccc(OC(F)(F)F)c5)CC4)cn3)CC2)c1` [Compound 429, 6-(4-(3-acetamidophenoxy)piperidine-1-carbonyl)-N-(1-(3-(trifluoromethoxy)benzyl)piperidin-4-yl)nicotinamide] came in with an EC50 of 0.5 to 1 µM. Compound `CS(=O)(=O)c1ccc(OC2CCN(C(=O)c3cnc(C(=O)NC4CCN(Cc5ccc(C#N)cc5)CC4)cn3)CC2)cc1` [Compound 218, N-(1-(4-cyanobenzyl)piperidin-4-yl)-5-(4-(4-(methylsulfonyl)phenoxy)piperidine-1-carbonyl)pyrazine-2-carboxamide] came in with an EC50 of less than 0.5 µM. `O=C(NC1CCN(Cc2cc(F)cc(F)c2)CC1)c1ccc(C(=O)N2CC[C@H](Oc3ccc(F)cc3)C2)cn1` [Compound 292, N-(1-(3,5-difluorobenzyl)piperidin-4-yl)-5-((S)-3-(4-fluorophenoxy)pyrrolidine-1-carbonyl)picolinamide] gave an EC50 of less than 0.5 µM. For `COc1cc(C#N)ccc1OC1CCN(c2ccc(C(=O)NC3CCN(Cc4ccc(C#N)cc4)CC3)nc2)CC1` [Compound 286, 5-(4-(4-cyano-2-methoxyphenoxy)piperidin-1-yl)-N-(1-(4-cyanobenzyl)piperidin-4-yl)picolinamide], the EC50 is less than 0.5 µM. The figure for `O=C(c1cccc(C(=O)N2CCN(c3ccccc3)CC2)n1)N1CCN(Cc2ccc(F)cc2)CC1` [Compound 94, (4-(4-fluorobenzyl)piperazin-1-yl)(6-(4-phenylpiperazine-1-carbonyl)pyridin-2-yl)methanone] is greater than 10 µM. The figure for `CC(C)(c1ccccc1)N1CCN(C(=O)c2ccc(C(=O)NC3CCN(Cc4ccc(C#N)cc4)CC3)nc2)CC1` [Compound 133, N-(1-(4-cyanobenzyl)piperidin-4-yl)-5-(4-(2-phenylpropan-2-yl)piperazine-1-carbonyl)picolinamide] is less than 0.5 µM.

The compound `CC(=O)c1ccc(OC2CCN(C(=O)c3ccc(C(=O)Nc4ccc(Oc5ccc(F)cc5)nc4)nc3)CC2)cc1` [Compound 359, 5-(4-(4-acetylphenoxy)piperidine-1-carbonyl)-N-(6-(4-fluorophenoxy)pyridin-3-yl)picolinamide] came in with a 50% effective concentration (EC50) of less than 0.5 µM. The result for `COc1ccc(OC2CCN(C(=O)c3ccc(C(=O)N[C@H]4CC[C@H](Oc5ccc(C#N)cc5)CC4)nc3)CC2)cc1` [Compound 172, N-((trans)-4-(4-cyanophenoxy)cyclohexyl)-5-(4-(4-methoxyphenoxy)piperidine-1-carbonyl)picolinamide] reads less than 0.5 µM.

Compound `COc1ccc(C(=O)C2CCN(C(=O)c3ccc(C(=O)N[C@@H]4CCN(Cc5ccc(C#N)cc5)C[C@H]4F)cn3)CC2)cc1` (relative stereo) [Compound 349, N-((trans)-1-(4-cyanobenzyl)-3-fluoropiperidin-4-yl)-6-(4-(4-methoxybenzoyl)piperidine-1-carbonyl)nicotinamide] had an EC50 of less than 0.5 µM. The figure for `O=C(N[C@H]1CC[C@@H](Oc2cc(F)cc(F)c2)CC1)c1ccc(C(=O)N2CCC(Oc3ccc(F)cc3)CC2)cn1` [Compound 299, N-((cis)-4-(3,5-difluorophenoxy)cyclohexyl)-5-(4-(4-fluorophenoxy)piperidine-1-carbonyl)picolinamide] is less than 0.5 µM.

`N#Cc1ccc(OC2CCN(C(=O)c3ccc(C(=O)NCCOc4ccc(F)cc4)nc3)CC2)cc1` [Compound 306, 5-(4-(4-cyanophenoxy)piperidine-1-carbonyl)-N-(2-(4-fluorophenoxy)ethyl)picolinamide] registered an EC50 of less than 0.5 µM. `N#Cc1ccc(CN2CCC(NC(=O)c3ccc(C(=O)N4CCC(Cc5ccc(F)cc5)CC4)cn3)CC2)cc1` [Compound 130, N-(1-(4-cyanobenzyl)piperidin-4-yl)-5-(4-(4-fluorobenzyl)piperidine-1-carbonyl)picolinamide] yielded an EC50 of less than 0.5 µM. Regarding `COc1ccc(C(=O)C2CCN(C(=O)c3ccc(C(=O)N[C@@H]4CCN(Cc5ccc(OC(F)(F)F)cc5)C[C@@H]4F)cn3)CC2)cc1` (relative stereo) [Compound 461, N-((cis)-3-fluoro-1-(4-(trifluoromethoxy)benzyl)piperidin-4-yl)-6-(4-(4-methoxybenzoyl)piperidine-1-carbonyl)nicotinamide], the concentration giving a half-maximal response (EC50) is less than 0.5 µM. The figure for `O=C(Nc1ccc(C(=O)N2CCN(Cc3ccc(F)cc3)CC2)cn1)c1ccc(-c2ccccc2)cc1` [Compound 170, N-(5-(4-(4-fluorobenzyl)piperazine-1-carbonyl)pyridin-2-yl)biphenyl-4-carboxamide] is greater than 10 µM; for `COc1ccc(C(=O)C2CCN(C(=O)c3ccc(C(=O)NC4CCN(Cc5ccc([N+](=O)[O-])cc5)CC4)cn3)CC2)cc1` [Compound 373, 6-(4-(4-methoxybenzoyl)piperidine-1-carbonyl)-N-(1-(4-nitrobenzyl)piperidin-4-yl)nicotinamide] it is less than 0.5 µM; for `N#Cc1ccc(CN2CCC(NC(=O)c3ccc(C(=O)N4CCC(Oc5ccc(C#N)cc5)CC4)cn3)CC2)cc1` [Compound 135, N-(1-(4-cyanobenzyl)piperidin-4-yl)-5-(4-(4-cyanophenoxy)piperidine-1-carbonyl)picolinamide] it is less than 0.5 µM.

As usually defined, the EC50 is the concentration needed to bring the measured effect to its halfway point.
